According to patent US4425356A, “Lankacidin derivatives used in swine husbandry” (Takeda Chemical Industries, Ltd., priority 1980, dated 1984):
In brackets after ≈: the same amount, converted by molar mass. Read-outs that look alike come from different tables or passages of the source.

Legend:
Treponema hyodysenteriae [1] = experiment: efficacy in experimental infection in mice with swine dysentery, Test Example 4; type: in vivo; conditions: 5 mg/kg/day oral, day 1 to day 4; seven days after infection
Experimental: Lankacidin A, lankacidin C, lankacidin C 8-acetate, lankacidin C 14-propionate, lankacidinol A and lankacidinol were tested for efficacy against swine dysentery in experimental infection in mice with swine dysentery.
The similar experimental infection model of swine dysentery in mice as that described, for example, by Joens et al. in Infection and Immunity, 25, 757-760 (1979), American Journal of Veterinary Research, 41, 1225-1226 (1980) and Veterinary Record, 107, 527-529 (1980) was used. Thus, a field isolate of Treponema hyodysenteriae anaerobically cultivated on the 5% defibrinated horse blood added Trypticase soy agar (BBL) plate was mashed together with the culture medium and diluted two-fold with Trypticase soy broth (BBL). Mice were inoculated intragastrically with this infecting dilution. Each test agent was suspended in 5% gum arabic solution and forcibly administered orally from day 1 to day 4 following infection. Seven days after infection, the cecum was examined for lesions, and the cecum was mashed together with the contents and subjected to Treponema hyodysenteriae counting. Excellent efficacy was produced in each of the drug-administered groups.

Treponema hyodysenteriae [2] = experiment: in vitro antibacterial activity (MIC, agar dilution method), Test Examples 1-3; type: cell-based; conditions: for MIC: Brachyspira hyodysenteriae, 48 h; for MIC / Minimum Inhibitory Concentration: 37° C., 2 days, anaerobic
Experimental: Several agents were tested for in vitro antibacterial activity against Treponema hyodysenteriae, the pathogenic bacteria causing swine dysentery, by the method of testing drug sensitivity of Treponema hyodysenteriae (Kashiwazaki et al. Abstracts of Papers presented at the 82nd Meeting of the Japanese Society of Veterinary Science, page 101, 1976).
(1) Strains: These strains belong to Treponema hyodysenteriae isolated
from the bloody mucous faeces of dysenteric pigs in Japan.
(2) Antimicrobial activity assay: Agar dilution method
(3) Inoculum size: A loopful of bacterial suspension (10^6 CFU/ml)
(4) Cultural conditions: GasPak anaerobic system (BBL), 37° C., 2
Typical agents among compound (I) were tested for in vitro antibacterial activity by the same method as in Test Example 1.
The experimental conditions are the same as in Test Example 1 (Table 1).
Agents of compound (I) were tested for in vitro antibacterial activity by the same method as in Test Example 1.

| SMILES | Number of mice from which the pathogen was detected/number of mice tested (Treponema hyodysenteriae [1]) | Number of mice with cecal lesions/number of mice tested (Treponema hyodysenteriae [1]) | MIC (Treponema hyodysenteriae [2]; read-out: Minimum Inhibitory Concentration, strain DJ70P1) [µg/mL] | in vitro antibacterial activity (in words) (Treponema hyodysenteriae [2]; against Treponema hyodysenteriae) | MIC (Treponema hyodysenteriae [2]; strain 78/A, read-out: Minimum Inhibitory Concentration) [µg/mL] | MIC (Treponema hyodysenteriae [2]; strain CD1 (CD-1), read-out: Minimum Inhibitory Concentration) [µg/mL] | MIC (Treponema hyodysenteriae [2]; strain DJ70P1, read-out: Minimum Inhibitory Concentration) [µg/mL] | MIC (Treponema hyodysenteriae [2]; strain MK-2, read-out: Minimum Inhibitory Concentration) [µg/mL] | Minimum Inhibitory Concentration (Treponema hyodysenteriae [2]; strain DJ70P1) [µg/mL] | Minimum Inhibitory Concentration (Treponema hyodysenteriae [2]; strain MK-2) [µg/mL] |
| --- | --- | --- | --- | --- | --- | --- | --- | --- | --- | --- |
| CC(=O)C(=O)NC1C=C(C)C=CC(O)CC=C(C)C=CC(O)CC2OC(=O)C1(C)C(=O)C2C (stereo not drawn) [Lankacidin C, lankacidin C] | 1/5 | 0/5 | 3.13 (≈ 6.81 µM) | strong antibacterial activity |  |  |  |  |  |  |
| CC(=O)OC1C=CC(C)=CCC(O)C=CC(C)=CC(NC(=O)C(C)=O)C2(C)C(=O)OC(C1)C(C)C2=O (stereo not drawn) [Lankacidin A, lankacidin A] | 1/5 | 0/5 |  |  | 3.13 (≈ 6.24 µM) | 6.25 (≈ 12.5 µM) | 6.25 (≈ 12.5 µM) | 3.13 (≈ 6.24 µM) | 3.13 | 6.25 |
